This assay concerns the target T1, Lysosomal acid glucosylceramidase (Homo sapiens, UniProt P04062).
T1 sequence (P04062 whole entry): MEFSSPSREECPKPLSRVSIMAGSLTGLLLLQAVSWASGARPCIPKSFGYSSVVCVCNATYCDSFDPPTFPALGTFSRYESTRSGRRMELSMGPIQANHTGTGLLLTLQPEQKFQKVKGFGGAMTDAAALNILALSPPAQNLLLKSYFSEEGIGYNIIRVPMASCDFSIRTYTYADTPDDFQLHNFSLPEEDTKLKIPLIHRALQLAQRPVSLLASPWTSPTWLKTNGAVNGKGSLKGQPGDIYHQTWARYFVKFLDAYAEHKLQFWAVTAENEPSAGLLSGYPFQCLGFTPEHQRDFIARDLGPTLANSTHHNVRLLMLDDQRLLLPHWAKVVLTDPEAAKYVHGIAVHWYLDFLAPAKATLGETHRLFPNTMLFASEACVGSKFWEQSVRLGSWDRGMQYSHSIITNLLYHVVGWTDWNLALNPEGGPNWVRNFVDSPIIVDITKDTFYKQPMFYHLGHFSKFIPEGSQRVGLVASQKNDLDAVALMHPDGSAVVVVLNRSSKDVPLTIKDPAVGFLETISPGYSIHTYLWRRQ
Description: The reaction solution consisted of 25 μL of 6 mM 4-methylumbelliferone-β-D glucopyranoside in 10% DMSO in the same buffer, 12.5 μL of enzyme and 12.5 μL of various concentrations of test compound diluted in buffer. […] The reaction was initiated by addition of enzyme and allowed to proceed for 20 min at 37° C. to assess GCase activity. […] IC50 values were determined by fitting the data to a log [inhibitor concentration] versus response curve using GraphPad Prism.

On to `CCCC1(CCC)NC[C@@H](O)[C@H](O)[C@H]1CO`, for which the inhibition constant Ki (as a rule, a measure of affinity in units of concentration, obtained from inhibition or displacement) amounted to 1400 nM.

(Values after ChEMBL document CHEMBL5726543, “Glucocerebrosidase modulators and uses thereof” (2017).)
